From patent publication US8357659B2, “Method of treating pain or itching with APETx2 peptide toxin” (priority 2008, dated 2013) come the findings set out here.

For data set [1], the system named is thermal hyperalgesia induced by CFA. The data set is described as follows: Inflammation-induced (CFA) thermal hyperalgesia in rats, hotplate at 50° C. Type of data set: in vivo, rat. The procedure:
Sensitivity to heat of adult male Wistar rats (Charles River, France) was tested by measuring the time taken by the animal to retract one of its hind paws when placed on a hotplate at 50° C. (Bioseb, France), before and after induction of inflammation by subcutaneous injection of a solution of Freund's complete adjuvant (CFA, Sigma-Aldrich, France). The rats were acclimatised to the experimentation room for at least 30 minutes and each measurement was performed in duplicate. An initial measurement was performed before induction of inflammation. The rats were subsequently anaesthetised (isofluorane) while 150 μl of CFA diluted 1:1 with a saline solution (0.9% NaCl) containing either toxins (PcTx1 or APETx2, 120 nM and 20 μM, respectively) or the vehicle was injected (26G needle mounted on a 1 ml syringe) subcutaneously into the plantar side of one of the hind paws. The time taken by the animal to lift the injected hind paw was subsequently measured at 50° C., 2, 4 and 24 hours after the injection of CFA.
(§1) ASIC3 channel-specific iRNA (no. 1121; CTACACGCTATGCCAAGGA, SEQ ID NO: 1) and its control (no. 1121S; GCTCACACTACGCAGAGAT, SEQ ID NO: 2) were designed in the laboratory and were synthesised by MWG Biotech Company (Germany). The ASIC3-specific iRNA was validated by quantification of the messenger RNA levels by quantitative RT-PCR for each ASIC channel and for the TRPV1 channel, following intrathecal injections into the lumbar region of the spinal cord of rats, at a rate of one injection per day for 3 consecutive days, before the animal was sacrificed. The same procedure was followed before induction of inflammation by CFA. Each injection was 10 μl in volume, containing 2 μg of iRNA mixed with the transfection agent i-Fect (Neuromics) at a ratio of 1 to 4.

In data set [2] the test system is ASIC type current of cutaneous neurons of the spinal ganglia. Briefly: Whole cell patch clamp of native ASIC currents in cutaneous neurons of the spinal ganglia. Type of data set: cell-based, rat. The method, then:
The neurons of the dorsal root ganglion (spinal ganglia or DRG) innervating the skin were labelled by subcutaneous injections of 5×1 μl of Dil fluorescent dye (5% DMSO, Molecular Probes) in the dorsal side of the rats' hind paws. The dye was injected two weeks before the rats were sacrificed in order to prepare a primary culture of dorsal root ganglion.
The lumbar dorsal root ganglia L3-L6 of Wistar rats (8-11 weeks) were dissected bilaterally and separated enzymatically with 0.1% collagenase. The cells were subsequently plated on 35 mm Petri dishes covered with collagen and cultured at 37° C. (95% air/5% CO2) in DMEM medium containing 5% of foetal calf serum. The electrophysiological experiments were performed 1 to 8 days after seeding.
(§2) The whole cell configuration of the patch clamp method was used ([ref. 48]) in order to measure the membrane currents (imposed voltage) or the membrane potentials (imposed current). The recordings were performed at ambient temperature using an RK-400 amplifier (Bio-Logic Science Instruments) with a 3 kHz low-pass filter (Krohn-Hite). The data were sampled at 10 kHz, digitised using a Digidata 1322A A-D/D-A converter (Axon Instruments) and recorded on a hard disk using pClamp software (version 9.2.0.11, Axon Instruments). The recording probes (1-4 MOhms) contained (in mM): 135 KCl, 2.5 Na2-ATP, 2 MgCl2, 2.1 CaCl2, 5 EGTA, 10 HEPES (pH 7.25 with KOH). Various different buffers and drugs of interest were added to the transfected cells considered individually using an internally developed microinfusion system controlled by microelectrovalves (Sirai, Italy) allowing rapid changes of solution. The control bath solution contained (in mM): 145 NaCl, 5 KCl, 2 MgCl2, 2 CaCl2, 10 HEPES (pH 7.4 with NaOH). The MES medium was used instead of the HEPES medium in order to buffer the solution at a pH ranging from 6 to 5, and the ASIC currents were induced by rapid changes of a control solution at pH 7.4 to an acid test solution using the microinfusion system. For the experiments conducted on the DRG neurons, glucose (10 mM) was added to the control bath solution. Hypertonic conditions were obtained by adding mannitol or sucrose to the external bath solutions, as indicated in the text.

In data set [3] the test system is cutaneous pain induced by moderate acidification. Briefly: Nociceptive behaviour in rats after subcutaneous injection of moderately acidic solutions. The data set is classed as in vivo, rat. The procedure:
Adult (7-8 weeks' old) male Wistar rats (Charles River, France) were placed in plastic cages with a nyctohemeral period of 12 h (with light between 8 a.m. and 8 p.m.) and with free access to food and water. The rats were left to acclimatize for at least one week before the experiments. For the behavioural experiments, the rats were placed in a transparent observation chamber where they were acclimatized for 20-30 minutes. They were subsequently immobilised while 20 μl of saline solution (0.9% or 2% of NaCl+20 mM of HEPES, […] or 60 nM of PcTx1 toxin), was administered subcutaneously to the dorsal side of the right hind paw using a 30G needle connected to a 100 μl Hamilton syringe. The nociceptive behaviour (i.e. the number of hind leg quiverings) was recorded over a 5-minute period, starting immediately after the injection ([ref. 59]).

The test system of the next data set is ASIC3 messenger RNA. Briefly: Quantitative RT-PCR of channel messenger RNA levels in spinal ganglia after intrathecal iRNA. Type of data set: in vivo, rat. As to conditions: 2 μg per injection, one per day for 3 days, other ASIC and TRPV1 channels not reduced.
Description: as §1

Data set [4] deals with T1, ASIC3 (rat clone) in F-11 cells (Rattus norvegicus, UniProt O35240).
T1 construct: expressed in transfected cells; host or cells: F-11 cells, vector pCI-ASIC3r co-transfected with pIRES2-EGFP
T1 sequence (O35240 1-533): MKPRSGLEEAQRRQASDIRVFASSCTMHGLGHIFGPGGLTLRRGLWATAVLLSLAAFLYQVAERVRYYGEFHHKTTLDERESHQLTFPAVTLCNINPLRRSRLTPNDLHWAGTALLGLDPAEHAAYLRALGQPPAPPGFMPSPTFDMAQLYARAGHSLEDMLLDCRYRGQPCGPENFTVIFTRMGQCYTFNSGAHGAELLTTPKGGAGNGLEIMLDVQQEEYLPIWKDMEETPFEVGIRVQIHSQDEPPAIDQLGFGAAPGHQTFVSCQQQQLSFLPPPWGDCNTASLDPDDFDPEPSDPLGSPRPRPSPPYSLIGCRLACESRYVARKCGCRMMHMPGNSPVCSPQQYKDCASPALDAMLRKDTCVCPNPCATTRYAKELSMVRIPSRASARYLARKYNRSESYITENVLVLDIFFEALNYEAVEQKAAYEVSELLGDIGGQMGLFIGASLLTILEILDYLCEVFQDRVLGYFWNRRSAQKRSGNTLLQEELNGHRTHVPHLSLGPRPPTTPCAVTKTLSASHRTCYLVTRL
Briefly: Whole cell patch clamp of recombinant ASIC3 in transfected F-11 cells. Type of data set: cell-based. The procedure:
(§3) F-11 cells (refs. 44, 45, 46, 47]) were cultured in 5% of CO2 at a density of 50,000 cells per 35 mm Petri dish. The culture medium contained HAM F-12 medium (Invitrogen) supplemented with 15% foetal bovine serum (ICN Biomedicals), 1×HAT (sodium hypoxanthine, aminopterine and thymidine), 200 μg/ml of allo-4-hydroxy-L-proline (Sigma-Aldrich) and 1% antibiotics. One day after seeding, the cells were transfected with ASIC1a or ASIC3 DNAc (rat clones) using Lipofectamine™ (Invitrogen) according to the manufacturer's instructions using the vectors pCI-ASIC1ar+pIRES2-EGFP (ratio 1:2) or pCI-ASIC3r+pIRES2-EGFP (ratio 1:10) ([ref. 36]), quoted above). For the experiments concerning the human ASIC3 clone (refer to experiments on the effects of the APETx2 toxin on the human form of the ASIC3 channel), the cells were transfected with the DNAc of human ASIC3 using the transfection agent JetPEI (Polypus Transfection) according to the manufacturer's instructions with the aid of the vector pASIC3h-IRES-EGFP. The cells were used for the patch clamp experiments (an electrophysiological method for recording ionic currents travelling through cell membranes) 2 to 4 days after transfection.
as §2

Data set [5] has as its target T2, ASIC1a (rat clone) in F-11 cells (Rattus norvegicus, UniProt P55926).
T2 construct: expressed in transfected cells; host or cells: F-11 cells, vector pCI-ASIC1ar co-transfected with pIRES2-EGFP
T2 sequence (P55926 1-526): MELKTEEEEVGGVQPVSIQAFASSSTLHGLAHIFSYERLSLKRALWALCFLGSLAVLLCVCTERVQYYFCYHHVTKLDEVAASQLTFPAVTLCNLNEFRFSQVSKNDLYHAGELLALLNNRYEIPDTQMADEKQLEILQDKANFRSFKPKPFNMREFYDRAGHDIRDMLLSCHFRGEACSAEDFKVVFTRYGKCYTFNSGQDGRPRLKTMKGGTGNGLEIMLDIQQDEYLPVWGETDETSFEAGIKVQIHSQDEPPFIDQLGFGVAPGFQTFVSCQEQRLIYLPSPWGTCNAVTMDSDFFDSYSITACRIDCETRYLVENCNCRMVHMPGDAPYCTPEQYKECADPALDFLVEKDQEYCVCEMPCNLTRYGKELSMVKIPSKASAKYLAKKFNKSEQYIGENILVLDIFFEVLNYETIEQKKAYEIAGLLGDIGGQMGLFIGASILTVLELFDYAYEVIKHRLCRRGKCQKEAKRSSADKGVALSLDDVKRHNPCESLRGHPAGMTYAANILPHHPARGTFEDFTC
The data set is described as follows: Whole cell patch clamp of recombinant ASIC1a in transfected F-11 cells. The data set is classed as cell-based. The procedure: as §3
The whole cell configuration of the patch clamp method was used ([ref. 48]) in order to measure the membrane currents (imposed voltage) or the membrane potentials (imposed current). The recordings were performed at ambient temperature using an RK-400 amplifier (Bio-Logic Science Instruments) with a 3 kHz low-pass filter (Krohn-Hite). The data were sampled at 10 kHz, digitised using a Digidata 1322A A-D/D-A converter (Axon Instruments) and recorded on a hard disk using pClamp software (version 9.2.0.11, Axon Instruments). The recording probes (1-4 MOhms) contained (in mM): 135 KCl, 2.5 Na2-ATP, 2 MgCl2, 2.1 CaCl2, 5 EGTA, 10 HEPES (pH 7.25 with KOH). Various different buffers and drugs of interest were added to the transfected cells considered individually using an internally developed microinfusion system controlled by microelectrovalves (Sirai, Italy) allowing rapid changes of solution. […]

Where only a bound is given, the exact number is not on record here.

Turning to “PcTx1: animal peptide toxin, selective inhibitor of the homomer channels ASIC1a (EDCIPKWKGCVNRHGDCCEGLECWKRRRSFEVCVPKTPKT)”, the “development of thermal hyperalgesia” value in data set [1] (toxin concomitantly injected with CFA (APETx2 20 μM, PcTx1 120 nM), four hours after CFA) is on record as “devoid of any significant effect”. Further, the “inhibition by the toxin of the ASIC type current induced by pH 6.6” value in data set [2] (in 4.7% (2/43) of neurons, ASIC1a homomer current) is reported as over 90%; in data set [2] (in 23.3% (10/43) of neurons, ASIC3 type currents) it was under 10%. In data set [3] (pH 6.9 + 2% NaCl + AA, 10 μM APETx2 or 60 nM PcTx1 in injected solution, FIG. 5A), the “behaviour in response to acid pain with inflammatory signals” value is recorded as “devoid of any significant effect”.

Consider “ASIC3 channel-specific iRNA: interfering RNA directed against ASIC3 messenger RNA, CTACACGCTATGCCAAGGA, SEQ ID NO: 1 (listed as DNA, chemistry not given here)”, for which the “expression of the ASIC3 channels in the sensory neurons” value with ASIC3 messenger RNA is “marked and exclusive reduction”. Besides, in data set [1] (intrathecal iRNA during the 3 days preceding CFA, versus random sequence control iRNA), the “development of inflammatory thermal hyperalgesia” value is “do not develop any inflammatory thermal hyperalgesia”.

Take `CCCCC/C=C\C/C=C\C/C=C\C/C=C\CCCC(=O)O` [arachidonic acid]: the “non-inactivating ASIC3 window current” value in data set [4] (FIG. 4D) is listed as “markedly increased”. The “increase of the ASIC3 current” value in data set [4] (activated by pH 6.6, n=7, P=0.45) was 40±22%; in data set [4] (activated by pH 7.0, n=9) it was 493±84%; in data set [4] (activated by pH 7.2, n=23) it was 547±103%. For the same compound, in data set [2] (FIG. 2C), the “excitability of the cutaneous neurons (triggering of the action potential)” value was “increased excitability”. The “increase of the ASIC current induced by native pH 7.0” value in data set [2] (pH 7.0, n=6, P=0.06) turned out to be 172±65%. In addition, the “increase of the ASIC1a current” value in data set [5] (pH 6.6, n=2) came to 21±15%; in data set [5] (pH 7.0, n=5, P=0.06) it was 183±54%. Also, the “effect on ASIC1a current” value in data set [5] (pH 7.2) is “does not have any effect”. Moreover, the quivering score in data set [3] (co-injected 2% NaCl (~600 mosmol.kg^−1) and 10 mM AA at pH 6.9, subcutaneous, hind paw, 5-minute period, n=25, versus 11.1±2.54 at pH 6.9 alone) turned out to be 20.42±2.53.

Take `OC[C@@H](O)[C@@H](O)[C@H](O)[C@H](O)CO` [mannitol]: in data set [4] (600 mosmol.kg^−1 with mannitol, activated by pH 7.2, n=20), the “increase of the ASIC3 current by hyperosmolarity” value came to 148±20%.
